Source: patent US20030229132A1, “Small molecule modulators of apoptosis” (priority 2002, published 2003)

System: Jurkat cells
Assay: Caspase-3 activation in Jurkat cells (immunoblot)
Assay type: cell-based, human
Settings: 50 μM compound or 1 μM staurosporin, 6 hr
Protocol: (C) DNA fragmentation analysis. […] Cell viability assay.
Compounds were then tested for their ability to induce apoptosis in live cells. The ability of the compounds to activate caspase-3 in a Jurkat cell line was first assayed. […] This same pattern was seen when we assayed for the cleavage of poly (ADP-ribose) polymerase (PARP), a cellular substrate of caspases-3 and -7 (see, D. W. Nicholson, Cell Death Differ 6, 1028-42 (1999)). Upon apoptosis, PAR-P is cleaved from a 116 kD to an 85 kD protein.

For `O=C1C(=O)N(Cc2ccc(Cl)c(Cl)c2)c2ccccc21` [Compound 2], the “processing of procaspase-3” value was “significant processing”.
`O=C(NCc1ccc(Cl)c(Cl)c1)OC1CCc2ccccc21` (stereo not drawn) [Compound 4] was tested, and the “processing of procaspase-3” value was “less processing”.
For `O=C(NCc1ccc(Cl)c(Cl)c1)OC1CCc2ccccc21` (stereo not drawn) [Compound 5], the “processing of procaspase-3” value was “significant processing”.
